Measured values as given in US12427157B2, “Methods for treatment of diseases involving acidic or hypoxic diseased tissues” (Cybrexa 1, Inc., priority 2018, dated 2025).
pIC50: −log10 of the molar value. Residues, ends and D or L forms follow the SMILES beside them. *: point of attachment. X5 = CNCc1ccc(-c2c3c4c(cc(F)cc4n2[C@H](CC(C)C)NC(=O)OCCS*)C(=O)NCC3)cc1; X25 = COC[C@@H](CS*)OC(=O)N(C)Cc1ccc(-c2[nH]c3cc(F)cc4c3c2CCNC4=O)cc1; X12 = C[C@H](COC(=O)N(C)Cc1ccc(-c2[nH]c3cc(F)cc4c3c2CCNC4=O)cc1)S*; X14 = C[C@@H](COC(=O)N1CCC[C@]1(C)c1nc2c(C(N)=O)cccc2[nH]1)S*; X19 = CN(Cc1ccc(-c2[nH]c3cc(F)cc4c3c2CCNC4=O)cc1)C(=O)OCCS*

molecular target: PARP (Homo sapiens, UniProt P09874); test: Enzymatic Assay 2: HT Universal Chemiluminescent PARP Assay of cleaved compounds; settings: read-out: IC50 Enzymatic Assay 2; Examples cleaved per Example A (crude cleavage solution); R^8H starting materials as such;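 note: PARP reaction with activated DNA run 1 h at room temperature, product detected via streptavidin-HRP and luminescence endpoint reading on a plate reader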
Sequence (P09874 whole entry): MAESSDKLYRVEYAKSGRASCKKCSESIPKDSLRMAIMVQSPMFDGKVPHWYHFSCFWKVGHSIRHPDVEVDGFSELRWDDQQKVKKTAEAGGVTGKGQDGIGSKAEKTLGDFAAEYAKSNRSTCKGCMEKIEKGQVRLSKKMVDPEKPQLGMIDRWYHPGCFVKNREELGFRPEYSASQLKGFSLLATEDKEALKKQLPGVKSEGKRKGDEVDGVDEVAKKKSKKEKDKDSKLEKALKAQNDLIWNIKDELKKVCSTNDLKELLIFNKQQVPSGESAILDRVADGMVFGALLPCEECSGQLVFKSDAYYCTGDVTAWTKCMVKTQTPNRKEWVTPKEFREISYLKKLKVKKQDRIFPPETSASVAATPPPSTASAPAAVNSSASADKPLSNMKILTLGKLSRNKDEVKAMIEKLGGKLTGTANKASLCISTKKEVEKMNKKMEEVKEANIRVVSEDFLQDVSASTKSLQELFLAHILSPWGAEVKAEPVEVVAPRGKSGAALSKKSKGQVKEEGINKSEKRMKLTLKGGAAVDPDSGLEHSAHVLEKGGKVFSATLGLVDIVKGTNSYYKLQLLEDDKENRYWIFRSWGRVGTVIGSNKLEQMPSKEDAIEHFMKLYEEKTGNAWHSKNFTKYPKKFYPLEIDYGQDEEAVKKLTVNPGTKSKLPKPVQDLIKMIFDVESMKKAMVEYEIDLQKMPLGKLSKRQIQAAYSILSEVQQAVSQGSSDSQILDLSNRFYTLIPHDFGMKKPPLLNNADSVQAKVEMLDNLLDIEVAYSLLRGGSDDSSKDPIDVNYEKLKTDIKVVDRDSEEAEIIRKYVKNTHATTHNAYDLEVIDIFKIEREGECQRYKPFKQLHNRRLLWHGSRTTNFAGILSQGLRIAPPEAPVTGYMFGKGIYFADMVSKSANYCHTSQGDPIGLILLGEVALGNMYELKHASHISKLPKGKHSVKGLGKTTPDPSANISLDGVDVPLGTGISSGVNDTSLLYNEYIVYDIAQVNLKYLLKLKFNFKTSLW

In order of rising pIC50:
1. CC[C@H](C)[C@H](NC(=O)[C@@H]1CCCN1C(=O)[C@H](CC(N)=O)NC(=O)[C@H](CCC(N)=O)NC(=O)[C@H](CCC(=O)O)NC(=O)[C@H](C)N)C(=O)N[C@@H](Cc1ccc(O)cc1)C(=O)N[C@@H](Cc1c[nH]c2ccccc12)C(=O)N[C@@H](C)C(=O)N[C@@H](CCCNC(=N)N)C(=O)N[C@@H](Cc1ccc(O)cc1)C(=O)N[C@@H](C)C(=O)N[C@@H](CC(=O)O)C(=O)N[C@@H](Cc1c[nH]c2ccccc12)C(=O)N[C@@H](CC(C)C)C(=O)N[C@@H](Cc1ccccc1)C(=O)N[C@H](C(=O)N[C@H](C(=O)N1CCC[C@H]1C(=O)N[C@@H](CC(C)C)C(=O)N[C@@H](CC(C)C)C(=O)N[C@@H](CC(C)C)C(=O)N[C@@H](CC(C)C)C(=O)N[C@@H](CC(=O)O)C(=O)N[C@@H](CC(C)C)C(=O)N[C@@H](C)C(=O)N[C@@H](CC(C)C)C(=O)N[C@@H](CC(C)C)C(=O)N[C@H](C(=O)N[C@@H](CC(=O)O)C(=O)N[C@@H](C)C(=O)N[C@@H](CC(=O)O)C(=O)N[C@@H](CCC(=O)O)C(=O)N[C@@H](CSSCCOC(=O)N(C)Cc1ccc(-c2[nH]c3cc(F)cc4c3c2CCNC4=O)cc1)C(=O)NCC(=O)O)C(C)C)[C@@H](C)O)[C@@H](C)O [Example 15] (H-AEQNPIYWARYADWLFTTPLLLLDLALLVDADEC(X19)G-OH; N-terminus and C-terminus assumed)  8.19
2. CC[C@H](C)[C@H](NC(=O)[C@@H]1CCCN1C(=O)[C@H](CC(N)=O)NC(=O)[C@H](CCC(N)=O)NC(=O)[C@H](CCC(=O)O)NC(=O)[C@H](C)N)C(=O)N[C@@H](Cc1ccc(O)cc1)C(=O)N[C@@H](Cc1c[nH]c2ccccc12)C(=O)N[C@@H](C)C(=O)N[C@@H](CCCNC(=N)N)C(=O)N[C@@H](Cc1ccc(O)cc1)C(=O)N[C@@H](C)C(=O)N[C@@H](CC(=O)O)C(=O)N[C@@H](Cc1c[nH]c2ccccc12)C(=O)N[C@@H](CC(C)C)C(=O)N[C@@H](Cc1ccccc1)C(=O)N[C@H](C(=O)N[C@H](C(=O)N1CCC[C@H]1C(=O)N[C@@H](CC(C)C)C(=O)N[C@@H](CC(C)C)C(=O)N[C@@H](CC(C)C)C(=O)N[C@@H](CC(C)C)C(=O)N[C@@H](CC(=O)O)C(=O)N[C@@H](CC(C)C)C(=O)N[C@@H](C)C(=O)N[C@@H](CC(C)C)C(=O)N[C@@H](CC(C)C)C(=O)N[C@H](C(=O)N[C@@H](CC(=O)O)C(=O)N[C@@H](C)C(=O)N[C@@H](CC(=O)O)C(=O)N[C@@H](CCC(=O)O)C(=O)N[C@@H](CSSC[C@H](COC)OC(=O)N(C)Cc1ccc(-c2[nH]c3cc(F)cc4c3c2CCNC4=O)cc1)C(=O)NCC(=O)O)C(C)C)[C@@H](C)O)[C@@H](C)O [Example 27] (H-AEQNPIYWARYADWLFTTPLLLLDLALLVDADEC(X25)G-OH; N-terminus and C-terminus assumed)  8.41
3. CC(C)C[C@H](NC(=O)[C@H](Cc1ccc(O)cc1)NC(=O)[C@H](C)NC(=O)[C@H](CCCNC(=N)N)NC(=O)[C@H](Cc1c[nH]c2ccccc12)NC(=O)[C@@H]1CCCN1C(=O)[C@H](CC(N)=O)NC(=O)[C@H](CCC(N)=O)NC(=O)[C@H](CC(=O)O)NC(=O)[C@H](CC(=O)O)NC(=O)[C@H](C)N)C(=O)N[C@@H](CC(=O)O)C(=O)N[C@@H](CC(C)C)C(=O)N[C@@H](CC(C)C)C(=O)N[C@@H](Cc1ccccc1)C(=O)N1CCC[C@H]1C(=O)N[C@H](C(=O)N[C@@H](CC(=O)O)C(=O)N[C@H](C(=O)N[C@@H](CC(C)C)C(=O)N[C@@H](CC(C)C)C(=O)N[C@@H](CC(C)C)C(=O)N[C@@H](CC(=O)O)C(=O)N[C@@H](CC(C)C)C(=O)N[C@@H](CC(C)C)C(=O)N[C@@H](Cc1c[nH]c2ccccc12)C(=O)N[C@@H](CC(=O)O)C(=O)N[C@@H](C)C(=O)N[C@@H](CC(=O)O)C(=O)N[C@@H](CCC(=O)O)C(=O)N[C@@H](CSS[C@@H](C)COC(=O)N1CCC[C@@H](c2ccc(-n3cc4cccc(C(N)=O)c4n3)cc2)C1)C(=O)NCC(=O)O)[C@@H](C)O)[C@@H](C)O [Example 46]  8.43
4. CC[C@H](C)[C@H](NC(=O)[C@@H]1CCCN1C(=O)[C@H](CC(N)=O)NC(=O)[C@H](CCC(N)=O)NC(=O)[C@H](CCC(=O)O)NC(=O)[C@H](C)N)C(=O)N[C@@H](Cc1ccc(O)cc1)C(=O)N[C@@H](Cc1c[nH]c2ccccc12)C(=O)N[C@@H](C)C(=O)N[C@@H](CCCNC(=N)N)C(=O)N[C@@H](Cc1ccc(O)cc1)C(=O)N[C@@H](C)C(=O)N[C@@H](CC(=O)O)C(=O)N[C@@H](Cc1c[nH]c2ccccc12)C(=O)N[C@@H](CC(C)C)C(=O)N[C@@H](Cc1ccccc1)C(=O)N[C@H](C(=O)N[C@H](C(=O)N1CCC[C@H]1C(=O)N[C@@H](CC(C)C)C(=O)N[C@@H](CC(C)C)C(=O)N[C@@H](CC(C)C)C(=O)N[C@@H](CC(C)C)C(=O)N[C@@H](CC(=O)O)C(=O)N[C@@H](CC(C)C)C(=O)N[C@@H](C)C(=O)N[C@@H](CC(C)C)C(=O)N[C@@H](CC(C)C)C(=O)N[C@H](C(=O)N[C@@H](CC(=O)O)C(=O)N[C@@H](C)C(=O)N[C@@H](CC(=O)O)C(=O)N[C@@H](CCC(=O)O)C(=O)N[C@@H](CSSCCOC(=O)N[C@@H](CC(C)C)n1c(-c2ccc(CNC)cc2)c2c3c(cc(F)cc31)C(=O)NCC2)C(=O)NCC(=O)O)C(C)C)[C@@H](C)O)[C@@H](C)O [Example 34] (H-AEQNPIYWARYADWLFTTPLLLLDLALLVDADEC(X5)G-OH; N-terminus and C-terminus assumed)  8.60
5. CC[C@H](C)[C@H](NC(=O)[C@@H]1CCCN1C(=O)[C@H](CC(N)=O)NC(=O)[C@H](CCC(N)=O)NC(=O)[C@H](CCC(=O)O)NC(=O)[C@H](C)N)C(=O)N[C@@H](Cc1ccc(O)cc1)C(=O)N[C@@H](Cc1c[nH]c2ccccc12)C(=O)N[C@@H](C)C(=O)N[C@@H](CCCNC(=N)N)C(=O)N[C@@H](Cc1ccc(O)cc1)C(=O)N[C@@H](C)C(=O)N[C@@H](CC(=O)O)C(=O)N[C@@H](Cc1c[nH]c2ccccc12)C(=O)N[C@@H](CC(C)C)C(=O)N[C@@H](Cc1ccccc1)C(=O)N[C@H](C(=O)N[C@H](C(=O)N1CCC[C@H]1C(=O)N[C@@H](CC(C)C)C(=O)N[C@@H](CC(C)C)C(=O)N[C@@H](CC(C)C)C(=O)N[C@@H](CC(C)C)C(=O)N[C@@H](CC(=O)O)C(=O)N[C@@H](CC(C)C)C(=O)N[C@@H](C)C(=O)N[C@@H](CC(C)C)C(=O)N[C@@H](CC(C)C)C(=O)N[C@H](C(=O)N[C@@H](CC(=O)O)C(=O)N[C@@H](C)C(=O)N[C@@H](CC(=O)O)C(=O)N[C@@H](CCC(=O)O)C(=O)N[C@@H](CSS[C@H](C)COC(=O)N(C)Cc1ccc(-c2[nH]c3cc(F)cc4c3c2CCNC4=O)cc1)C(=O)NCC(=O)O)C(C)C)[C@@H](C)O)[C@@H](C)O [Example 19] (H-AEQNPIYWARYADWLFTTPLLLLDLALLVDADEC(X12)G-OH; N-terminus and C-terminus assumed)  8.66
6. CC(C)C[C@H](NC(=O)[C@H](Cc1ccc(O)cc1)NC(=O)[C@H](C)NC(=O)[C@H](CCCNC(=N)N)NC(=O)[C@H](Cc1c[nH]c2ccccc12)NC(=O)[C@@H]1CCCN1C(=O)[C@H](CC(N)=O)NC(=O)[C@H](CCC(N)=O)NC(=O)[C@H](CC(=O)O)NC(=O)[C@H](CC(=O)O)NC(=O)[C@H](C)N)C(=O)N[C@@H](CC(=O)O)C(=O)N[C@@H](CC(C)C)C(=O)N[C@@H](CC(C)C)C(=O)N[C@@H](Cc1ccccc1)C(=O)N1CCC[C@H]1C(=O)N[C@H](C(=O)N[C@@H](CC(=O)O)C(=O)N[C@H](C(=O)N[C@@H](CC(C)C)C(=O)N[C@@H](CC(C)C)C(=O)N[C@@H](CC(C)C)C(=O)N[C@@H](CC(=O)O)C(=O)N[C@@H](CC(C)C)C(=O)N[C@@H](CC(C)C)C(=O)N[C@@H](Cc1c[nH]c2ccccc12)C(=O)N[C@@H](CC(=O)O)C(=O)N[C@@H](C)C(=O)N[C@@H](CC(=O)O)C(=O)N[C@@H](CCC(=O)O)C(=O)N[C@@H](CSS[C@H](C)COC(=O)N(C)Cc1ccc(-c2[nH]c3cc(F)cc4c3c2CCNC4=O)cc1)C(=O)NCC(=O)O)[C@@H](C)O)[C@@H](C)O [Example 20]  8.77
7. CC[C@H](C)[C@H](NC(=O)[C@@H]1CCCN1C(=O)[C@H](CC(N)=O)NC(=O)[C@H](CCC(N)=O)NC(=O)[C@H](CCC(=O)O)NC(=O)[C@H](C)N)C(=O)N[C@@H](Cc1ccc(O)cc1)C(=O)N[C@@H](Cc1c[nH]c2ccccc12)C(=O)N[C@@H](C)C(=O)N[C@@H](CCCNC(=N)N)C(=O)N[C@@H](Cc1ccc(O)cc1)C(=O)N[C@@H](C)C(=O)N[C@@H](CC(=O)O)C(=O)N[C@@H](Cc1c[nH]c2ccccc12)C(=O)N[C@@H](CC(C)C)C(=O)N[C@@H](Cc1ccccc1)C(=O)N[C@H](C(=O)N[C@H](C(=O)N1CCC[C@H]1C(=O)N[C@@H](CC(C)C)C(=O)N[C@@H](CC(C)C)C(=O)N[C@@H](CC(C)C)C(=O)N[C@@H](CC(C)C)C(=O)N[C@@H](CC(=O)O)C(=O)N[C@@H](CC(C)C)C(=O)N[C@@H](C)C(=O)N[C@@H](CC(C)C)C(=O)N[C@@H](CC(C)C)C(=O)N[C@H](C(=O)N[C@@H](CC(=O)O)C(=O)N[C@@H](C)C(=O)N[C@@H](CC(=O)O)C(=O)N[C@@H](CCC(=O)O)C(=O)N[C@@H](CSS[C@@H](C)COC(=O)N1CCC[C@]1(C)c1nc2c(C(N)=O)cccc2[nH]1)C(=O)NCC(=O)O)C(C)C)[C@@H](C)O)[C@@H](C)O [Example 55] (H-AEQNPIYWARYADWLFTTPLLLLDLALLVDADEC(X14)G-OH; N-terminus and C-terminus assumed)  9.15
